Columns and labels:
Mouse [1] = assay: concentration in plasma after dosing; conditions: dosed: 2-Hydroxy-4-methoxybenzophenone, B6C3F1
Mouse [2] = assay: concentration in plasma after dosing; conditions: 0.25 h; dosed: 2-Hydroxy-4-methoxybenzophenone; 500 mg/kg; oral; Female; B6C3F1
Mouse [3] = assay: concentration in plasma after dosing; conditions: dosed: 2-Hydroxy-4-methoxybenzophenone, 100 mg/kg, oral, Female, B6C3F1
Rat [4] = assay: concentration in plasma after dosing; conditions: dosed: 2-Hydroxy-4-methoxybenzophenone, 8 mg/kg, iv, Female, F344
Mouse [5] = assay: concentration in plasma after dosing; conditions: dosed: 2-Hydroxy-4-methoxybenzophenone, 100 mg/kg, oral, Female, B6C3F1; remark: listed apart in the source
Rat [6] = assay: concentration in plasma after dosing; conditions: 0.5 h; dosed: Nitrite; 20 mg/kg; iv; Male; F344
Rat [7] = assay: concentration in plasma after dosing; conditions: 5 min; dosed: Nitrite; 80 mg/kg; oral; Female; F344
Rat [8] = assay: concentration in liver after dosing; conditions: 1 h; dosed: Fluorotelomer alcohol 8+2; 80 mg/kg; oral; Female; Harlan Sprague Dawley
Rat [9] = assay: concentration in kidney after dosing; conditions: 1200 h; dosed: Perfluorooctanoic acid; 12 mg/kg; oral; Male; Harlan Sprague Dawley
Rat [10] = assay: concentration in liver after dosing; conditions: 528 h; dosed: Perfluorooctanoic acid; 12 mg/kg; oral; Male; Harlan Sprague Dawley
Rat [11] = assay: concentration in kidney after dosing; conditions: 3 h; dosed: Fluorotelomer alcohol 8+2; 24 mg/kg; oral; Male; Harlan Sprague Dawley
Rat [12] = assay: concentration in plasma after dosing; conditions: dosed: Potassium Perfluorobutane Sulfonate, 4 mg/kg, oral, Male, Harlan Sprague Dawley
Rat [13] = assay: concentration in plasma after dosing; conditions: dosed: Potassium Perfluorobutane Sulfonate, 4 mg/kg, iv, Male, F344
Rat [14] = assay: concentration in liver after dosing; conditions: 6 h; dosed: Potassium Perfluorobutane Sulfonate; 20 mg/kg; oral; Female; Harlan Sprague Dawley
Rat [15] = assay: concentration in liver after dosing; conditions: 12 h; dosed: Potassium Perfluorobutane Sulfonate; 20 mg/kg; oral; Male; Harlan Sprague Dawley
Rat [16] = assay: concentration in kidney after dosing; conditions: 0.5 h; dosed: Potassium Perfluorobutane Sulfonate; 20 mg/kg; oral; Female; Harlan Sprague Dawley
Rat [17] = assay: concentration in kidney after dosing; conditions: 3 h; dosed: Potassium Perfluorobutane Sulfonate; 20 mg/kg; oral; Female; Harlan Sprague Dawley
rat [18] = assay: concentration in plasma after dosing; conditions: dosed: benzo[a]pyrene, 100 ug/m^3, inhalation, duration: 4 hr, F344
rat [19] = assay: concentration in adipose after dosing (ugEq/g tissue); conditions: dosed: benzo[a]pyrene, iv, male, Wistar

## COc1ccc(C(=O)c2ccccc2)c(O)c1 [2-Hydroxy-4-methoxybenzophenone]
Mouse [1]; 2.5 min, 100 mg/kg, oral, Female
  concentration in plasma: 6.58 ng/mL
Mouse [1]; 2.5 min, 100 mg/kg, oral, Male
  concentration in plasma: 13.4 ng/mL
Mouse [1]; 2.5 min, 250 mg/kg, oral, Female
  concentration in plasma: 22 ng/mL
Mouse [1]; 2.5 min, 250 mg/kg, oral, Male
  concentration in plasma: 15.7 ng/mL
Mouse [1]; 10 min, 50 mg/kg, iv, Female
  concentration in plasma: 9660 ng/mL
Mouse [1]; 10 min, 50 mg/kg, iv, Male
  concentration in plasma: 11500 ng/mL
Mouse [1]; 10 min, 100 mg/kg, oral, Female
  concentration in plasma: 57.3 ng/mL
Mouse [1]; 10 min, 100 mg/kg, oral, Male
  concentration in plasma: 41.5 ng/mL
Mouse [1]; 10 min, 250 mg/kg, oral, Female
  concentration in plasma: 165 ng/mL
Mouse [1]; 10 min, 250 mg/kg, oral, Male
  concentration in plasma: 69.5 ng/mL
Mouse [1]; 10 min, 500 mg/kg, oral, Female
  concentration in plasma: 526 ng/mL
Mouse [1]; 10 min, 500 mg/kg, oral, Male
  concentration in plasma: 176 ng/mL
Mouse [1]; 0.25 h, 50 mg/kg, iv, Female
  concentration in plasma: 4570 ng/mL
Mouse [1]; 0.25 h, 50 mg/kg, iv, Male
  concentration in plasma: 5620 ng/mL
Mouse [1]; 0.25 h, 100 mg/kg, oral, Female
  concentration in plasma: 103 ng/mL
Mouse [1]; 0.25 h, 100 mg/kg, oral, Male
  concentration in plasma: 62.2 ng/mL
Mouse [1]; 0.25 h, 250 mg/kg, oral, Female
  concentration in plasma: 260 ng/mL
Mouse [1]; 0.25 h, 250 mg/kg, oral, Male
  concentration in plasma: 519 ng/mL
Mouse [1]; 0.25 h, 500 mg/kg, oral, Female
  concentration in plasma: 2950 ng/mL
Mouse [1]; 0.25 h, 500 mg/kg, oral, Male
  concentration in plasma: 238 ng/mL
Mouse [1]; 2 h, 50 mg/kg, iv, Female
  concentration in plasma: 259 ng/mL
Mouse [1]; 2 h, 50 mg/kg, iv, Male
  concentration in plasma: 279 ng/mL
Mouse [1]; 2 h, 100 mg/kg, oral, Female
  concentration in plasma: 20.1 ng/mL
Mouse [1]; 2 h, 100 mg/kg, oral, Male
  concentration in plasma: 36.5 ng/mL
Mouse [1]; 2 h, 250 mg/kg, oral, Female
  concentration in plasma: 45.8 ng/mL
Mouse [1]; 2 h, 250 mg/kg, oral, Male
  concentration in plasma: 54.8 ng/mL
Mouse [1]; 2 h, 500 mg/kg, oral, Female
  concentration in plasma: 11500 ng/mL
Mouse [1]; 2 h, 500 mg/kg, oral, Male
  concentration in plasma: 73.1 ng/mL
Mouse [1]; 3 h, 50 mg/kg, iv, Female
  concentration in plasma: 193 ng/mL
Mouse [1]; 3 h, 50 mg/kg, iv, Male
  concentration in plasma: 235 ng/mL
Mouse [1]; 3 h, 100 mg/kg, oral, Female
  concentration in plasma: 11.8 ng/mL
Mouse [1]; 3 h, 100 mg/kg, oral, Male
  concentration in plasma: 19.3 ng/mL
Mouse [1]; 3 h, 250 mg/kg, oral, Female
  concentration in plasma: 264 ng/mL
Mouse [1]; 3 h, 250 mg/kg, oral, Male
  concentration in plasma: 41.9 ng/mL
Mouse [2]
  concentration in plasma: 1230 ng/mL
Mouse [3]; 2.5 min
  concentration in plasma: 29.6 ng/mL
Mouse [3]; 10 min
  concentration in plasma: 62.3 ng/mL
Mouse [3]; 0.25 h
  concentration in plasma: 151 ng/mL
Mouse [3]; 2 h
  concentration in plasma: 13.9 ng/mL
Mouse [3]; 3 h
  concentration in plasma: 9.13 ng/mL
Rat [4]; 10 min
  concentration in plasma: 3030 ng/mL
Rat [4]; 2 h
  concentration in plasma: 78.6 ng/mL
Mouse [5]; 2.5 min
  concentration in plasma: 15.3 ng/mL
Mouse [5]; 10 min
  concentration in plasma: 37.3 ng/mL
Mouse [5]; 0.25 h
  concentration in plasma: 81 ng/mL
Mouse [5]; 2 h
  concentration in plasma: 4.58 ng/mL
Mouse [5]; 3 h
  concentration in plasma: 5.05 ng/mL

## O=N[O-] [Nitrite]
Rat [6]
  concentration in plasma: 3700 ng/mL
Rat [7]
  concentration in plasma: 8200 ng/mL

## O=C(O)C(F)(F)C(F)(F)C(F)(F)C(F)(F)C(F)(F)C(F)(F)C(F)(F)F [Perfluorooctanoic acid]
Rat [8]
  concentration in liver: 727 ng/g
Rat [9]
  concentration in kidney: 1110 ng/g
Rat [10]
  concentration in liver: 19500 ng/g
Rat [11]
  concentration in kidney: 272 ng/g

## O=S(=O)([O-])C(F)(F)C(F)(F)C(F)(F)C(F)(F)F.[K+] [Potassium Perfluorobutane Sulfonate]
Rat [12]; 0.5 h
  concentration in plasma: 6060 ng/mL
Rat [12]; 9 h
  concentration in plasma: 5230 ng/mL
Rat [13]; 0.25 h
  concentration in plasma: 15900 ng/mL
Rat [13]; 6 h
  concentration in plasma: 47.5 ng/mL
Rat [14]
  concentration in liver: 2620 ng/g
Rat [15]
  concentration in liver: 10100 ng/g
Rat [16]
  concentration in kidney: 26700 ng/g
Rat [17]
  concentration in kidney: 10500 ng/g

## c1ccc2c(c1)cc1ccc3cccc4ccc2c1c34 [benzo[a]pyrene]
Rat [18]; 0.05 h, female
  concentration in plasma: 10 ng/mL
Rat [18]; 0.05 h, male
  concentration in plasma: 14.9 ng/mL
Rat [18]; 1 h, female
  concentration in plasma: 23 ng/mL
Rat [18]; 1 h, male
  concentration in plasma: 18 ng/mL
Rat [18]; 2 h, female
  concentration in plasma: 11 ng/mL
Rat [18]; 2 h, male
  concentration in plasma: 12 ng/mL
Rat [18]; 4 h, female
  concentration in plasma: 1.07 ng/mL
Rat [18]; 4 h, male
  concentration in plasma: 2 ng/mL
Rat [19]; 5 min, 2 mg/kg
  concentration in adipose: 1.06
Rat [19]; 5 min, 6 mg/kg
  concentration in adipose: 0.37
Rat [19]; 5 min, 15 mg/kg
  concentration in adipose: 1.47
Rat [19]; 10 min, 2 mg/kg
  concentration in adipose: 1.22
Rat [19]; 10 min, 6 mg/kg
  concentration in adipose: 0.81
Rat [19]; 10 min, 15 mg/kg
  concentration in adipose: 2.73
Rat [19]; 20 min, 2 mg/kg
  concentration in adipose: 1.82
Rat [19]; 20 min, 6 mg/kg
  concentration in adipose: 2.04
Rat [19]; 20 min, 15 mg/kg
  concentration in adipose: 5.65
Rat [19]; 0.5 h, 2 mg/kg
  concentration in adipose: 2.77
Rat [19]; 0.5 h, 6 mg/kg
  concentration in adipose: 2.29
Rat [19]; 0.5 h, 15 mg/kg
  concentration in adipose: 8.6
Rat [19]; 0.75 h, 2 mg/kg
  concentration in adipose: 2.4
Rat [19]; 0.75 h, 6 mg/kg
  concentration in adipose: 4.54
Rat [19]; 0.75 h, 15 mg/kg
  concentration in adipose: 13.4
Rat [19]; 1 h, 2 mg/kg
  concentration in adipose: 3.86
Rat [19]; 1 h, 6 mg/kg
  concentration in adipose: 3.99
Rat [19]; 1 h, 15 mg/kg
  concentration in adipose: 9.76
Rat [19]; 1.5 h, 2 mg/kg
  concentration in adipose: 2.58
Rat [19]; 1.5 h, 6 mg/kg
  concentration in adipose: 5.25
Rat [19]; 1.5 h, 15 mg/kg
  concentration in adipose: 14.8
Rat [19]; 2 h, 2 mg/kg
  concentration in adipose: 3.96
Rat [19]; 2 h, 6 mg/kg
  concentration in adipose: 3.37
Rat [19]; 2 h, 15 mg/kg
  concentration in adipose: 17.1
Rat [19]; 3 h, 2 mg/kg
  concentration in adipose: 3.29
Rat [19]; 3 h, 6 mg/kg
  concentration in adipose: 2.88
Rat [19]; 3 h, 15 mg/kg
  concentration in adipose: 19.8
Rat [19]; 4 h, 2 mg/kg
  concentration in adipose: 2.96
Rat [19]; 4 h, 6 mg/kg
  concentration in adipose: 2.38
Rat [19]; 4 h, 15 mg/kg
  concentration in adipose: 15.4
Rat [19]; 5 h, 2 mg/kg
  concentration in adipose: 3.03
Rat [19]; 5 h, 6 mg/kg
  concentration in adipose: 3.88
Rat [19]; 5 h, 15 mg/kg
  concentration in adipose: 27.8
Rat [19]; 6 h, 2 mg/kg
  concentration in adipose: 2.28
Rat [19]; 6 h, 6 mg/kg
  concentration in adipose: 4.26
Rat [19]; 6 h, 15 mg/kg
  concentration in adipose: 15.1
Rat [19]; 8 h, 2 mg/kg
  concentration in adipose: 3.13
Rat [19]; 8 h, 6 mg/kg
  concentration in adipose: 4.09
Rat [19]; 8 h, 15 mg/kg
  concentration in adipose: 17.4
Rat [19]; 24 h, 2 mg/kg
  concentration in adipose: 1.38
Rat [19]; 24 h, 15 mg/kg
  concentration in adipose: 11.1
Rat [19]; 32 h, 2 mg/kg
  concentration in adipose: 1.46
Rat [19]; 32 h, 6 mg/kg
  concentration in adipose: 1.02
Rat [19]; 32 h, 15 mg/kg
  concentration in adipose: 5.85

Source: EPA's CvTdb concentration-time database
